PubChem BioAssay (NCI)
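All cell lines were grown in 96-well plates and treated with compound for 48 hours. GI50 marks 50% less growth. The concentration for full growth arrest is given as TGI.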

Assays:
Assay in all cases: NCI-60 cell line screen, 48 h
SK-MEL-2 melanoma = tested on: SK-MEL-2 melanoma
OVCAR-4 ovarian = tested on: OVCAR-4 ovarian
NCI-H23 lung = tested on: NCI-H23 lung
DMS 114 small cell lung = tested on: DMS 114 small cell lung
NCI-H522 lung = tested on: NCI-H522 lung
SW-620 colon = tested on: SW-620 colon
UACC-62 melanoma = tested on: UACC-62 melanoma
HOP-62 NSCLC = tested on: HOP-62 NSCLC
RXF-631 renal = tested on: RXF-631 renal
HS 578T breast = tested on: HS 578T breast
SR leukemia = tested on: SR leukemia
SF-268 CNS = tested on: SF-268 CNS
M19-MEL melanoma = tested on: M19-MEL melanoma
CAKI-1 renal = tested on: CAKI-1 renal
NCI-H226 lung = tested on: NCI-H226 lung
LOX IMVI melanoma = tested on: LOX IMVI melanoma
MDA-MB-231 breast = tested on: MDA-MB-231 breast
DLD-1 colon = tested on: DLD-1 colon
KM20L2 colon = tested on: KM20L2 colon
MOLT-4 leukemia = tested on: MOLT-4 leukemia
DU-145 prostate = tested on: DU-145 prostate
UACC-257 melanoma = tested on: UACC-257 melanoma
MDA-MB-435 = tested on: MDA-MB-435
SK-MEL-5 melanoma = tested on: SK-MEL-5 melanoma
SK-MEL-28 melanoma = tested on: SK-MEL-28 melanoma
HOP-92 NSCLC = tested on: HOP-92 NSCLC
RXF 393 renal = tested on: RXF 393 renal
XF 498 CNS = tested on: XF 498 CNS
786-0 renal = tested on: 786-0 renal
UO-31 renal = tested on: UO-31 renal
SK-OV-3 ovarian = tested on: SK-OV-3 ovarian
NCI/ADR-RES ovarian = tested on: NCI/ADR-RES ovarian
A549 NSCLC = tested on: A549 NSCLC
PC-3 prostate = tested on: PC-3 prostate
KM12 colon = tested on: KM12 colon
HCT-116 colon = tested on: HCT-116 colon
A498 renal = tested on: A498 renal
IGROV1 ovarian = tested on: IGROV1 ovarian
HCC-2998 colon = tested on: HCC-2998 colon
OVCAR-5 ovarian = tested on: OVCAR-5 ovarian
RPMI-8226 leukemia = tested on: RPMI-8226 leukemia
MCF7 breast = tested on: MCF7 breast
NCI-H460 lung = tested on: NCI-H460 lung
CCRF-CEM leukemia = tested on: CCRF-CEM leukemia
COLO 205 colon = tested on: COLO 205 colon
T-47D breast = tested on: T-47D breast
SNB-78 CNS = tested on: SNB-78 CNS
TK-10 renal = tested on: TK-10 renal
K-562 leukemia = tested on: K-562 leukemia
LXFL 529 NSCLC = tested on: LXFL 529 NSCLC
SNB-19 CNS = tested on: SNB-19 CNS
HT29 colon = tested on: HT29 colon
OVCAR-3 ovarian = tested on: OVCAR-3 ovarian
M14 melanoma = tested on: M14 melanoma
EKVX NSCLC = tested on: EKVX NSCLC
HL-60(TB) leukemia = tested on: HL-60(TB) leukemia
HCT-15 colon = tested on: HCT-15 colon
ACHN renal = tested on: ACHN renal
SN12C renal = tested on: SN12C renal
SF-295 CNS = tested on: SF-295 CNS
BT-549 breast = tested on: BT-549 breast
SNB-75 CNS = tested on: SNB-75 CNS
OVCAR-8 ovarian = tested on: OVCAR-8 ovarian
SF-539 CNS = tested on: SF-539 CNS
U251 CNS = tested on: U251 CNS
MALME-3M melanoma = tested on: MALME-3M melanoma
DMS 273 small cell lung = tested on: DMS 273 small cell lung

`CN(C)CCONC(=O)C12CC3CC(CC(C3)C1)C2` gave a TGI (SK-MEL-2 melanoma) greater than 100 µM, a GI50 (OVCAR-4 ovarian) greater than 100 µM and a TGI (OVCAR-4 ovarian) greater than 100 µM. It also gave a TGI (NCI-H23 lung) greater than 100 µM, a TGI (DMS 114 small cell lung) greater than 100 µM and a TGI (NCI-H522 lung) greater than 100 µM. It also gave a GI50 (SW-620 colon) greater than 100 µM, a TGI (SW-620 colon) greater than 100 µM and a TGI (UACC-62 melanoma) greater than 100 µM. For the same compound, the TGI (HOP-62 NSCLC) was greater than 100 µM, the TGI (RXF-631 renal) was greater than 100 µM and the GI50 (HS 578T breast) was greater than 100 µM. It also gave a TGI (HS 578T breast) greater than 100 µM, a TGI (SR leukemia) greater than 100 µM and a TGI (SF-268 CNS) greater than 100 µM. For the same compound, the TGI (M19-MEL melanoma) was greater than 100 µM, the TGI (CAKI-1 renal) was greater than 100 µM and the TGI (NCI-H226 lung) was greater than 100 µM. For the same compound, the TGI (LOX IMVI melanoma) was greater than 100 µM, the GI50 (MDA-MB-231 breast) was greater than 100 µM and the TGI (MDA-MB-231 breast) was greater than 100 µM. For the same compound, the TGI (DLD-1 colon) was greater than 100 µM, the TGI (KM20L2 colon) was greater than 100 µM and the TGI (MOLT-4 leukemia) was greater than 100 µM. It also gave a GI50 (DU-145 prostate) greater than 100 µM, a TGI (DU-145 prostate) greater than 100 µM and a TGI (UACC-257 melanoma) greater than 100 µM. For the same compound, the GI50 (MDA-MB-435) was greater than 100 µM, the TGI (MDA-MB-435) was greater than 100 µM and the TGI (SK-MEL-5 melanoma) was greater than 100 µM. For the same compound, the TGI (SK-MEL-28 melanoma) was greater than 100 µM, the TGI (HOP-92 NSCLC) was greater than 100 µM and the TGI (RXF 393 renal) was greater than 100 µM. The TGI (XF 498 CNS) was greater than 100 µM, the TGI (786-0 renal) was greater than 100 µM and the TGI (UO-31 renal) was greater than 100 µM. It also gave a TGI (SK-OV-3 ovarian) greater than 100 µM, a GI50 (NCI/ADR-RES ovarian) greater than 100 µM and a TGI (NCI/ADR-RES ovarian) greater than 100 µM. It also gave a TGI (A549 NSCLC) greater than 100 µM, a GI50 (PC-3 prostate) greater than 100 µM and a TGI (PC-3 prostate) greater than 100 µM. For the same compound, the TGI (KM12 colon) was greater than 100 µM, the TGI (HCT-116 colon) was greater than 100 µM and the TGI (A498 renal) was greater than 100 µM. For the same compound, the TGI (IGROV1 ovarian) was greater than 100 µM, the GI50 (HCC-2998 colon) was greater than 100 µM and the TGI (HCC-2998 colon) was greater than 100 µM. It also gave a TGI (OVCAR-5 ovarian) greater than 100 µM, a TGI (RPMI-8226 leukemia) greater than 100 µM and a GI50 (MCF7 breast) greater than 100 µM. It also gave a TGI (MCF7 breast) greater than 100 µM, a TGI (NCI-H460 lung) greater than 100 µM and a TGI (CCRF-CEM leukemia) greater than 100 µM. It also gave a TGI (COLO 205 colon) greater than 100 µM, a GI50 (T-47D breast) greater than 100 µM and a TGI (T-47D breast) greater than 100 µM. The TGI (SNB-78 CNS) was 69.2 µM, the TGI (TK-10 renal) was greater than 100 µM and the TGI (K-562 leukemia) was greater than 100 µM. The TGI (LXFL 529 NSCLC) was greater than 100 µM, the TGI (SNB-19 CNS) was greater than 100 µM and the TGI (HT29 colon) was greater than 100 µM. The TGI (OVCAR-3 ovarian) was greater than 100 µM, the TGI (M14 melanoma) was greater than 100 µM and the TGI (EKVX NSCLC) was greater than 100 µM. The TGI (HL-60(TB) leukemia) was greater than 100 µM, the TGI (HCT-15 colon) was greater than 100 µM and the TGI (ACHN renal) was greater than 100 µM. The TGI (SN12C renal) was greater than 100 µM, the TGI (SF-295 CNS) was greater than 100 µM and the GI50 (BT-549 breast) was greater than 100 µM. The TGI (BT-549 breast) was greater than 100 µM, the TGI (SNB-75 CNS) was greater than 100 µM and the TGI (OVCAR-8 ovarian) was greater than 100 µM. For the same compound, the TGI (SF-539 CNS) was greater than 100 µM and the TGI (U251 CNS) was greater than 100 µM.
With `O=C(Cc1ccc(F)cc1)NC1=C(Cl)C(=O)c2ccccc2C1=O` the TGI (SK-MEL-2 melanoma) was 6.33 µM, the TGI (OVCAR-4 ovarian) was 9.28 µM and the TGI (NCI-H23 lung) was 5.94 µM. It also gave a TGI (DMS 114 small cell lung) of 1.8 µM, a TGI (NCI-H522 lung) of 1.25 µM and a TGI (SW-620 colon) of 5.76 µM. The TGI (UACC-62 melanoma) was 9.87 µM, the TGI (HOP-62 NSCLC) was 44.6 µM and the TGI (RXF-631 renal) was greater than 50 µM. It also gave a TGI (SR leukemia) of 3.34 µM, a TGI (SF-268 CNS) of 15.1 µM and a TGI (M19-MEL melanoma) of 14.7 µM. For the same compound, the TGI (CAKI-1 renal) was 19.8 µM, the TGI (NCI-H226 lung) was 12.7 µM and the TGI (LOX IMVI melanoma) was 9.05 µM. For the same compound, the TGI (DLD-1 colon) was 4.24 µM, the TGI (KM20L2 colon) was 34.8 µM and the TGI (UACC-257 melanoma) was 6.56 µM. The TGI (SK-MEL-5 melanoma) was 11.3 µM, the TGI (SK-MEL-28 melanoma) was 11.6 µM and the TGI (HOP-92 NSCLC) was 3.68 µM. The TGI (RXF 393 renal) was 4.11 µM, the TGI (XF 498 CNS) was 4.02 µM and the TGI (786-0 renal) was 19.5 µM. For the same compound, the TGI (UO-31 renal) was 7.88 µM, the TGI (SK-OV-3 ovarian) was 58.3 µM and the TGI (A549 NSCLC) was 16.4 µM. The TGI (KM12 colon) was 14.4 µM, the TGI (HCT-116 colon) was 11.9 µM and the TGI (IGROV1 ovarian) was 6.63 µM. The TGI (HCC-2998 colon) was 16 µM, the TGI (OVCAR-5 ovarian) was 13.1 µM and the TGI (RPMI-8226 leukemia) was 4.14 µM. It also gave a TGI (NCI-H460 lung) of 13.8 µM, a TGI (CCRF-CEM leukemia) greater than 100 µM and a TGI (COLO 205 colon) of 12.7 µM. It also gave a TGI (SNB-78 CNS) of 34.7 µM, a TGI (TK-10 renal) of 14.5 µM and a TGI (LXFL 529 NSCLC) of 10.5 µM. For the same compound, the TGI (SNB-19 CNS) was greater than 100 µM, the TGI (HT29 colon) was 35.4 µM and the TGI (OVCAR-3 ovarian) was 9.33 µM. It also gave a TGI (M14 melanoma) of 12.4 µM, a TGI (EKVX NSCLC) of 16 µM and a TGI (MALME-3M melanoma) of 7.89 µM. For the same compound, the TGI (HL-60(TB) leukemia) was 0.39 µM, the TGI (HCT-15 colon) was 7.43 µM and the TGI (ACHN renal) was 3.4 µM. For the same compound, the TGI (SN12C renal) was 13.8 µM, the TGI (SF-295 CNS) was 12 µM and the TGI (SNB-75 CNS) was 18.3 µM. It also gave a TGI (DMS 273 small cell lung) of 13.6 µM, a TGI (OVCAR-8 ovarian) of 4.05 µM and a TGI (SF-539 CNS) of 5.02 µM. It also gave a TGI (U251 CNS) of 11.5 µM.
